Structures are written as SMILES.

Here are results for one compound from patent US10258073B2, “Functional nutritional blend for thermo-metabolic performance” (priority 2016, dated 2019).

This data set deals with Mouse 3T3-L1 pre adipocytes. Kind of data set: Cell viability by Sulforhodamine B (SRB) assay. To be noted: 72 h. It counts as cell-based.

Experimental: Cell culture: Mouse immortalised 3T3-L1 pre adipocytes were cultured in 5% CO2 at 37° C. in growth media consisting of Dulbecco's Modified Eagles Medium (DMEM) containing 10% heat-inactivated fetal calf serum with 40 μg/mL of gentamycin 5×10^3 cells were seeded per well in a 96 well plate and allowed to grow as a confluent monolayer.
Mouse 3T3-L1 pre adipocytes were cultured in DMEM containing 10% heat-inactivated foetal calf serum. 5000 cells were seeded in 96 well culture plates and allowed to form adhere and form a monolayer. Test compounds were added at different concentrations and incubated for 72 hours at 37° C. and 5% CO2. Cells were fixed using 10% trichloroacetic acid (TCA) solution at 4° C. for one hour. SRB solution (0.4%) was added to the wells and incubated for 30 minutes at room temperature. Excess dye was washed 5 times with 1% acetic acid. 100 μl of 10 mM trizma base was added to the wells to solubilize the SRB. Absorbance was read using a microplate reader at a wave length of 492 nm. The absorbance of cells with growth media was considered as 100% viable and percentage viability was calculated based on this reading.

The compound `O=C(/C=C/C=C/c1ccc2c(c1)OCO2)N1CCCCC1` [Piperine] displayed a Non-toxic concentration of 25 µg/mL.
